Results on five substances are retold here after US11602578B2, “Crosslinkable polypeptide and hyaluronic acid coatings” (Université de Strasbourg, priority 2017, dated 2023).

In assay [1] the test system is S. aureus. The settings on record: with S. aureus; Adv. Funct. Mater. 2013, 23, 4801-4809; cited from earlier work.
Assay [2] has as its system S. aureus. The assay can be described thus: PAR in solution: S. aureus growth and minimal inhibitory concentration in MHB medium. The conditions noted are these: for inhibition of S. aureus growth by PAR in solution (in words): concentrations up to 0.04 mg·mL^−1, 24 h at 37° C. in MHB; for times less active than PAR100 or PAR200 chains: from the MICs determined in solution; for inhibition of bacterial growth by PAR in solution (in words): at 1 μM. It counts as cell-based, Staphylococcus aureus. How it is done: PAR with 10, 30, 100 or 200 arginine residues per chain were tested. Each PAR was incubated 24 h at 37° C. in 300 μL of MHB medium with S. aureus (A620=0.001). Pathogen growth of 0% corresponds to medium with antibiotics (and without PAR) and 100% to medium without PAR. Each value corresponds to the mean value of 3 individual experiments (3 samples per experiment and condition) and error bars correspond to standard deviations. For each concentration, the first column represents the normalized pathogen growth of S. aureus for PAR10, the 2nd column for PAR30, the third column for PAR100 and the fourth for PAR200.
In the following the inventors of the present invention wanted to further elucidate the underlying mechanism that confer to the coatings of the invention the strong inhibitory property on the surface and in the supernatant. As an example the (PAR30/HA)24 coating was further investigated. Accordingly, the minimal inhibitory concentration (MIC) of PAR in solution was determined using bacterial assay as described in Experimental Section. […] Finally for PAR at concentrations of 0.01 mg·mL^−1, inhibition of 100% was shown only for PAR30. Longer or shorter PAR chains (PAR10, PAR100 or PAR200) inhibits only partially (less than 40%) S. aureus growth. […] This reasoning is valid when PAR concentration values are expressed in mass (mg·mL^−1) thus it is related to the number of arginine monomers. However when the graph is plotted with concentrations in μM (and thus proportional in number of chains), which means that concentration is related to number of chains, different interpretation can be made. […] Moreover the MIC100 values obtained for PAR30, PAR100 or PAR200 ranges at very low concentrations (between 1 and 2 μM) which is remarkable when compared to well-known antimicrobial peptides (for example 30 μM for cateslytin with S. aureus, see Adv. Funct. Mater. 2013, 23, 4801-4809). PAR is thus a powerful candidate to fight against S. aureus.

As for cateslytin, the “MIC of a known antimicrobial peptide” value in the assay on S. aureus [1] was 30 µM.

Consider poly-L-arginine [PAR10], for which the “concentration needed to totally inhibit bacterial growth in solution” value with S. aureus [2] (S. aureus, PAR in solution) is “about 10 μM”. In the assay on S. aureus [2], the “inhibition of S. aureus growth by PAR in solution (in words)” value was “totally inhibited” and the “times less active than PAR100 or PAR200 chains” value turned out to be 10 times.

In the case of poly-L-arginine [PAR30], the “inhibition of S. aureus growth by PAR in solution” value in the assay with S. aureus [2] (0.01 mg·mL^−1, 24 h at 37° C. in MHB) is reported as 100%. Besides, in the assay with S. aureus [2] (S. aureus, PAR in solution), the MIC90 entry is given as “about 2 μM” and the “concentration needed to totally inhibit bacterial growth in solution” value is “about 10 μM”. Moreover, in the assay with S. aureus [2], the “inhibition of S. aureus growth by PAR in solution (in words)” value is “totally inhibited” and the “times less active than PAR100 or PAR200 chains” value turned out to be 2 times.

Regarding poly-L-arginine [PAR100], in the assay with S. aureus [2], the “inhibition of bacterial growth by PAR in solution (in words)” value is given as “totally inhibit” and the “inhibition of S. aureus growth by PAR in solution (in words)” value was “totally inhibited”.

Regarding poly-L-arginine [PAR200], the “inhibition of S. aureus growth by PAR in solution” value with S. aureus [2] (0.02 mg·mL^−1, 24 h at 37° C. in MHB) is “about 45%”. In the assay with S. aureus [2], the “inhibition of bacterial growth by PAR in solution (in words)” value is listed as “totally inhibit” and the “inhibition of S. aureus growth by PAR in solution (in words)” value was “totally inhibited”.
